Data published in patent publication US20260256741A1, “ANTICANCER MALEIMIDE DERIVATIVES FOR USE WITH IMMUNE CHECKPOINT BLOCKADE” (BROWN UNIVERSITY, priority 2022, published 2026).

Assays:
[1] = test system: CD45+ immune cell segments of tumor biopsies; test: GeoMx Digital Spatial Profiling of patient tumor biopsies; type: in vivo, human; conditions: post- vs pre-treatment
Description: An Agilent technologies hybridization oven was used for baking tissue onto slides (Agilent, Santa Clara, CA, USA). A NanoString GeoMx® Digital Spatial Profiler (DSP) instrument (NanoString, Seattle, WA, USA) was used to scan slides, identify regions of interest (ROIs), and collect photocleavable barcodes according to manufacturer instructions. A custom panel was designed to include the following proteins: Ms IgG1, Ms IgG2a, Rb IgG, GAPDH, Histone H3, S6, Beta-2-microglobulin, CD31, CD45, Ki-67, ARG1, CD11b, CD11c, CD14, CD163, CD39, CD40, CD68, HLA-DR, GZMB, CD20, CD3, CD34, CD4, CD56, CD66b, CD8, Foxp3, Fibronectin, 4-1BB, B7-H3, CTLA4, GITR, IDO1, LAG3, OX40L, STING, Tim-3, VISTA, Bcl-2, ER-α, EpCAM, Her2, MART1, NY-ESO-1, PR, PTEN, PanCk, SMA, CD127, CD25, CD27, CD44, CD45RO, CD80, ICOS, PD-1, PD-L1, and PD-L2. An Eppendorf MasterCycler Gradient Thermal Cycler was used to generate the Illumina sequencing libraries from the photocleaved tags. (Eppendorf, Hamburg, Germany). An Agilent Fragment Analyzer (RRID: SCR_019417) was used for library size distribution analysis with a high-sensitivity NGS Fragment Kit (Cat #DNF-474-0500, Agilent, Santa Clara, CA, USA). qPCR for quantification was run using an Illumina-compatible KAPA Library Quantification Kits (ROX Low) (cat #KK4873) on an Applied Biosystems ViiA 7 Real-Time qPCR/PCR Thermal Cycler System (Applied Biosystems, San Francisco, CA, USA) and was analyzed using QuantStudio software (RRID: SCR_018712). Sequencing was performed using a NextSeq 500/550 High Output Kit v2.5 (75 Cycles) kit (cat #20024906) on an Illumina Sequencing NextSeq 550 System ([RRID: SCR_016381], Illumina, San Diego, CA, USA). The initial annotated dataset went through quality control (QC) to check if housekeeper genes and background (isotype) control molecules were themselves correlated with the predictors of interest. Every ROT was tested for raw sequencing reads (segments with <1000 raw reads were removed), % sequencing saturation (defined as [1-deduplicated reads/aligned reads]%, segments below ~50% were not analyzed), and nuclei count per segment (>100 nuclei per segment is generally recommended). Both immunoglobulins (IgGs) and housekeeper genes were highly correlated with one another. Signal to noise (SNR) ratio was calculated using background probes and all probes were detected above the background in at least one ROI. Finally, data were normalized based on background IgG expression and all normalization factors were well distributed. Data analysis and visualization were generated using R ([RRID: SCR_001905], R Development Core Team, 2020). Archival tumor specimens and peripheral blood samples were collected from patients enrolled in the Phase I study of Elraglusib (9-ING-41), a small molecule selective glycogen synthase kinase-3 beta (GSK-3b) inhibitor, as monotherapy or combined with cytotoxic regimens in patients with relapsed or refractory hematologic malignancies or solid tumors (Clinicaltrials.gov NCT03678883) who received treatment at the Lifespan Cancer Institute (Providence, RI, USA). The study was conducted in accordance with the Declaration of Helsinki and the International Conference on Harmonization Good Clinical Practice guidelines. The study protocol was approved by the Institutional Review Board (IRB) of Rhode Island Hospital under protocol number 1324888-120. The patients also participated in a Lifespan Cancer Institute research protocol designed to investigate molecular and genetic features of tumors and mechanisms of resistance (Rhode Island Hospital IRB protocol number 449060-38). All patients provided written informed consent.

NK-92 cells = test: Microarray gene expression analysis, NK-92; type: cell-based, human; conditions: IC-50 concentration (1 μM), 24 hours; FC cutoff >1.5, <−1.5, p<0.05
Description: A total of 0.5×10^6 tumor cells (HCT-116, HT-29, KM12C) were plated in a 6-well plate and allowed to adhere overnight before 24-hour treatment as indicated. 1×10^6 immune cells (NK92, TALL-104) were plated and treated with elraglusib as indicated for 24 hours. RNA was isolated from cell pellets in batches of 6 using an RNeasy Plus Mini Kit (Cat #74134, Qiagen, Hilden, Germany). Acceptable RNA concentration and quality were verified with Nanodrop and Bioanalyzer measurements. GeneChip™ Human Transcriptome Array 2.0 assays were conducted according to manufacturer instructions in two batches using randomized samples to limit batch effects (Cat #902162, Applied Biosystems, Waltham, MA, USA). Applied Biosystems Transcriptomic Analysis Console (TAC) software (RRID: SCR_016519) was used to calculate fold changes in gene expression relative to the untreated control cells. Values were considered statistically significant for p values <0.05.

[2] = tumor-infiltrating CD45+ segments, p=0.012
[3] = tumor-infiltrating CD45+ segments, p=1.6E-3
[4] = tumor-infiltrating CD45+ segments, p=3.1E-5

`Cn1cc(C2=C(c3coc4ccc(F)cc34)C(=O)NC2=O)c2cc3c(cc21)OCO3` [elraglusib, 3-(5-fluorobenzofuran-3-yl)-4-(5-methyl-5H-[1,3]dioxolo[4,5-f]indol-7-yl)-1H-pyrrole-2,5-dione] was tested, and the CD40 protein expression ([1]; CD45+ regions, all samples, p=0.020) was “decreased protein expression”, the CD11c protein expression ([1]; CD45+ regions, all samples, p=0.022) was “decreased protein expression” and the PD-L2 protein expression ([1]; CD45+ regions, all samples, p=2.0E-9) was “decreased protein expression”. For the same compound, the VISTA protein expression ([1]; CD45+ regions, all samples, p=2.0E-24) was “decreased protein expression”, the PD-L1 protein expression ([1]; CD45+ regions, all samples, p=3.2E-13) was “decreased protein expression” and the CD68 protein expression ([1]; CD45+ regions, all samples, p=3.8E-4) was “decreased protein expression”. For the same compound, the IDO1 protein expression ([1]; CD45+ regions, all samples, p=4.8E-6) was “decreased protein expression”, the LAG3 protein expression ([1]; CD45+ regions, all samples, p=5.1E-4) was “decreased protein expression” and the CD80 protein expression ([1]; CD45+ regions, all samples, p=5.4E-6) was “decreased protein expression”. The PD-1 protein expression ([1]; CD45+ regions, all samples, p=5.6E-9) was “decreased protein expression”, the CD11b protein expression ([1]; CD45+ regions, all samples, p=6.7E-3) was “decreased protein expression” and the CD66b protein expression ([1]; CD45+ regions, all samples, p=7.5E-15) was “decreased protein expression”. For the same compound, the B7-H3 protein expression [1, 2] was “higher protein expression”, the CD127 protein expression [1, 2] was “higher protein expression” and the GITR protein expression ([1]; tumor-infiltrating CD45+ segments, p=0.021) was “lower protein expression”. The CD45RO protein expression ([1]; tumor-infiltrating CD45+ segments, p=1.1E-4) was “lower protein expression”, the PD-L1 protein expression ([1]; tumor-infiltrating CD45+ segments, p=1.1E-6) was “lower protein expression” and the CD66b protein expression ([1]; tumor-infiltrating CD45+ segments, p=1.4E-13) was “lower protein expression”. For the same compound, the PTEN protein expression ([1]; tumor-infiltrating CD45+ segments, p=1.5E-11) was “lower protein expression”, the OX40L protein expression [1, 3] was “higher protein expression” and the PD-1 protein expression [1, 3] was “lower protein expression”. For the same compound, the VISTA protein expression ([1]; tumor-infiltrating CD45+ segments, p=1.6E-14) was “lower protein expression”, the CD80 protein expression ([1]; tumor-infiltrating CD45+ segments, p=2.4E-3) was “lower protein expression” and the B2M protein expression ([1]; tumor-infiltrating CD45+ segments, p=2.5E-6) was “lower protein expression”. The Ki-67 protein expression ([1]; tumor-infiltrating CD45+ segments, p=2.7E-4) was “lower protein expression”, the CTLA4 protein expression [1, 4] was “higher protein expression” and the HLA-DR protein expression [1, 4] was “lower protein expression”. The CD44 protein expression ([1]; tumor-infiltrating CD45+ segments, p=3.1E-7) was “lower protein expression”, the CD34 protein expression ([1]; tumor-infiltrating CD45+ segments, p=3.3E-9) was “lower protein expression” and the CD68 protein expression ([1]; tumor-infiltrating CD45+ segments, p=5.8E-4) was “lower protein expression”. The IDO1 protein expression ([1]; tumor-infiltrating CD45+ segments, p=6.6E-4) was “lower protein expression”, the CD56 protein expression ([1]; tumor-infiltrating CD45+ segments, p=6.9E-3) was “lower protein expression” and the PD-L2 protein expression ([1]; tumor-infiltrating CD45+ segments, p=7.6E-4) was “lower protein expression”. For the same compound, the ARG1 protein expression ([1]; tumor-infiltrating CD45+ segments, p=7.6E-5) was “lower protein expression”, the CD11c protein expression ([1]; tumor-infiltrating CD45+ segments, p=9.5E-3) was “lower protein expression” and the “differentially expressed genes post-treatment” value (NK-92 cells) was 61.
